Holding throughout (experiment): relative viability (nuclei count vs DMSO), 5 days (fraction); higher = more cells survive
Compound in the experiment “DM3189 + Tozasertib”: C1CN(CCN1)C2=CC=C(C=C2)C3=CN4C(=C(C=N4)C5=CC=NC6=CC=CC=C56)N=C3 [DM3189] + Cc1cc(Nc2cc(N3CCN(C)CC3)nc(Sc3ccc(NC(=O)C4CC4)cc3)n2)n[nH]1 [Tozasertib] (partner 0.1 µM)
Put shortly: (§1)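 Lung cancer cell lines in 1536-well plates got either a single drug or a fixed anchor-drug dose together with five library-drug doses (not always all listed) in √10 steps, by pin tool, on the day after seeding. Nuclei were counted after 5 days, and relative viability is the treated-to-vehicle ratio of nuclei counts. Values are medians of duplicate plates.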

Compound in the experiment “DM3189 + Phenformin”: C1CN(CCN1)C2=CC=C(C=C2)C3=CN4C(=C(C=N4)C5=CC=NC6=CC=CC=C56)N=C3 [DM3189] + N=C(N)NC(=N)NCCc1ccccc1 [Phenformin] (partner 250 µM)
A digest of the protocol:
as §1

Compound in the experiment “DM3189 + Pictilisib”: C1CN(CCN1)C2=CC=C(C=C2)C3=CN4C(=C(C=N4)C5=CC=NC6=CC=CC=C56)N=C3 [DM3189] + CS(=O)(=O)N1CCN(Cc2cc3nc(-c4cccc5[nH]ncc45)nc(N4CCOCC4)c3s2)CC1 [Pictilisib] (partner 1 µM)
Put shortly:
as §1

Compound in the experiment “DM3189 + Vorinostat”: C1CN(CCN1)C2=CC=C(C=C2)C3=CN4C(=C(C=N4)C5=CC=NC6=CC=CC=C56)N=C3 [DM3189] + O=C(CCCCCCC(=O)Nc1ccccc1)NO [Vorinostat] (partner 1 µM)
Put shortly: as §1

Compound in the experiment “DM3189 + Alpelisib”: C1CN(CCN1)C2=CC=C(C=C2)C3=CN4C(=C(C=N4)C5=CC=NC6=CC=CC=C56)N=C3 [DM3189] + Cc1nc(NC(=O)N2CCC[C@H]2C(N)=O)sc1-c1ccnc(C(C)(C)C(F)(F)F)c1 [Alpelisib] (partner 2 µM)
A digest of the protocol:
as §1

Consider SK-LU-1, for which the relative viability came out at 0.241 with DM3189 + Tozasertib (first compound 0.08 µM); 0.204 with DM3189 + Tozasertib (first compound 0.253 µM); 0.248 with DM3189 + Tozasertib (first compound 0.8 µM); 0.219 in the experiment with DM3189 + Tozasertib (first compound 2.53 µM); 0.479 with DM3189 + Phenformin (first compound 0.08 µM); 0.383 with DM3189 + Phenformin (first compound 0.253 µM). Besides, the relative viability with DM3189 + Phenformin (first compound 0.8 µM) is 0.33; in the experiment with DM3189 + Phenformin (first compound 2.53 µM), 0.314; with DM3189 + Pictilisib (first compound 0.08 µM), 0.531; with DM3189 + Pictilisib (first compound 0.253 µM) it was 0.4; with DM3189 + Pictilisib (first compound 0.8 µM) it was 0.393; with DM3189 + Pictilisib (first compound 2.53 µM), 0.393. Also, the relative viability with DM3189 + Vorinostat (first compound 0.08 µM) was found to be 0.742; in the experiment with DM3189 + Vorinostat (first compound 0.253 µM), 0.749; with DM3189 + Vorinostat (first compound 0.8 µM) it was 0.728; with DM3189 + Vorinostat (first compound 2.53 µM), 0.598; in the experiment with DM3189 + Alpelisib (first compound 0.08 µM), 0.932; in the experiment with DM3189 + Alpelisib (first compound 0.253 µM), 0.677. The relative viability with DM3189 + Alpelisib (first compound 0.8 µM) was determined as 0.638; with DM3189 + Alpelisib (first compound 2.53 µM), 0.377.

As to SK-MES-1, the relative viability was 0.901 in the experiment with DM3189 + Tozasertib (first compound 0.08 µM); 0.831 with DM3189 + Tozasertib (first compound 0.253 µM); 0.687 with DM3189 + Tozasertib (first compound 0.8 µM); 0.87 in the experiment with DM3189 + Tozasertib (first compound 2.53 µM); 0.679 with DM3189 + Phenformin (first compound 0.08 µM); 0.62 with DM3189 + Phenformin (first compound 0.253 µM). The relative viability in the experiment with DM3189 + Phenformin (first compound 0.8 µM) was found to be 0.587; in the experiment with DM3189 + Phenformin (first compound 2.53 µM), 0.662; in the experiment with DM3189 + Pictilisib (first compound 0.08 µM), 0.305; with DM3189 + Pictilisib (first compound 0.253 µM), 0.3; with DM3189 + Pictilisib (first compound 0.8 µM), 0.289; with DM3189 + Pictilisib (first compound 2.53 µM) it was 0.319. Moreover, the relative viability turned out to be 1.34 with DM3189 + Vorinostat (first compound 0.08 µM); 1.01 with DM3189 + Vorinostat (first compound 0.253 µM); 0.787 with DM3189 + Vorinostat (first compound 0.8 µM); 0.875 with DM3189 + Vorinostat (first compound 2.53 µM); 0.937 with DM3189 + Alpelisib (first compound 0.08 µM); 0.873 with DM3189 + Alpelisib (first compound 0.253 µM). Also, the values for the relative viability with DM3189 + Alpelisib (first compound 0.8 µM) and with DM3189 + Alpelisib (first compound 2.53 µM) were 0.738 and 0.782, respectively.

Regarding SW 1573, the relative viability in the experiment with DM3189 + Tozasertib (first compound 0.08 µM) came to 0.212; in the experiment with DM3189 + Tozasertib (first compound 0.253 µM) it was 0.171; with DM3189 + Tozasertib (first compound 0.8 µM), 0.142; with DM3189 + Tozasertib (first compound 2.53 µM), 0.153; with DM3189 + Phenformin (first compound 0.08 µM), 0.318; with DM3189 + Phenformin (first compound 0.253 µM) it was 0.349. The relative viability with DM3189 + Phenformin (first compound 0.8 µM) was determined as 0.296; with DM3189 + Phenformin (first compound 2.53 µM), 0.285; with DM3189 + Pictilisib (first compound 0.08 µM), 0.541; with DM3189 + Pictilisib (first compound 0.253 µM), 0.491; with DM3189 + Pictilisib (first compound 0.8 µM), 0.466; with DM3189 + Pictilisib (first compound 2.53 µM), 0.399. Moreover, the relative viability with DM3189 + Vorinostat (first compound 0.08 µM) was found to be 0.786; with DM3189 + Vorinostat (first compound 0.253 µM), 0.761; with DM3189 + Vorinostat (first compound 0.8 µM) it was 0.633; with DM3189 + Vorinostat (first compound 2.53 µM), 0.337; with DM3189 + Alpelisib (first compound 0.08 µM), 0.869; with DM3189 + Alpelisib (first compound 0.253 µM), 0.59. Moreover, the results for the relative viability in the experiment with DM3189 + Alpelisib (first compound 0.8 µM) and with DM3189 + Alpelisib (first compound 2.53 µM) were 0.711 and 0.774, respectively.

With UMC-11, the relative viability with DM3189 + Tozasertib (first compound 0.08 µM) amounted to 0.189; with DM3189 + Tozasertib (first compound 0.253 µM), 0.201; in the experiment with DM3189 + Tozasertib (first compound 0.8 µM), 0.199; with DM3189 + Tozasertib (first compound 2.53 µM), 0.21; with DM3189 + Phenformin (first compound 0.08 µM), 0.348; in the experiment with DM3189 + Phenformin (first compound 0.253 µM) it was 0.321. Besides, the relative viability with DM3189 + Phenformin (first compound 0.8 µM) is 0.349; with DM3189 + Phenformin (first compound 2.53 µM) it was 0.356; with DM3189 + Pictilisib (first compound 0.08 µM), 0.836; with DM3189 + Pictilisib (first compound 0.253 µM), 0.795; with DM3189 + Pictilisib (first compound 0.8 µM), 0.764; with DM3189 + Pictilisib (first compound 2.53 µM), 0.702. In addition, the relative viability in the experiment with DM3189 + Vorinostat (first compound 0.08 µM) stood at 0.356; with DM3189 + Vorinostat (first compound 0.253 µM), 0.349; with DM3189 + Vorinostat (first compound 0.8 µM) it was 0.358; in the experiment with DM3189 + Vorinostat (first compound 2.53 µM), 0.281; with DM3189 + Alpelisib (first compound 0.08 µM) it was 0.994; with DM3189 + Alpelisib (first compound 0.253 µM) it was 0.998. The relative viability in the experiment with DM3189 + Alpelisib (first compound 0.8 µM) was 0.794; in the experiment with DM3189 + Alpelisib (first compound 2.53 µM), 0.749.
